Biological target: IKZF2 (Homo sapiens (Human), UniProt Q96SW2+Q9UKS7)
Experiment: IKZF2 HiBiT Assay (Jurkat-IKZF2-HiBiT cell line)
Format: cell-based
Conditions: Jurkat-IKZF2-HiBiT cells, 24 hours; for DC50: read-out: HiBit assay degradation analysis DC50; for Dmax: read-out: HiBit assay degradation analysis Dmax
Outline: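 IKZF2 degradation was assessed as HiBiT luminescence in Jurkat-IKZF2-HiBiT cells, using lytic detection after 24 h of compound treatment at 37 °C, 5% CO2.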

IKZF2, sequence (Q9UKS7 whole entry): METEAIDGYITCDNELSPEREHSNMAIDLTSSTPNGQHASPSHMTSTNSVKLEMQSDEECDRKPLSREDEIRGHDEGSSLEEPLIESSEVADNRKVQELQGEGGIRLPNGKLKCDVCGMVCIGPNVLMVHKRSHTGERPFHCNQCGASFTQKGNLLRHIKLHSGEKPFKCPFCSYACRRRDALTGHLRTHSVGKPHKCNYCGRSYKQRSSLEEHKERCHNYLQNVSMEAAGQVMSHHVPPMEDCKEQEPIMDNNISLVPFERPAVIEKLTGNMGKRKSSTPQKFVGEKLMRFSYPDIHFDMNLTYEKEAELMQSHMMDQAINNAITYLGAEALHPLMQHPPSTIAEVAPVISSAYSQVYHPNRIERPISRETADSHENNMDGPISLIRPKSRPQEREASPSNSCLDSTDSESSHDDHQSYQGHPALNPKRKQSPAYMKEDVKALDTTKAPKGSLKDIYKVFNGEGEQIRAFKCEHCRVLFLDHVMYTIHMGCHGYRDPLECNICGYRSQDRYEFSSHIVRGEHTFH
IKZF2, sequence (Q96SW2 whole entry): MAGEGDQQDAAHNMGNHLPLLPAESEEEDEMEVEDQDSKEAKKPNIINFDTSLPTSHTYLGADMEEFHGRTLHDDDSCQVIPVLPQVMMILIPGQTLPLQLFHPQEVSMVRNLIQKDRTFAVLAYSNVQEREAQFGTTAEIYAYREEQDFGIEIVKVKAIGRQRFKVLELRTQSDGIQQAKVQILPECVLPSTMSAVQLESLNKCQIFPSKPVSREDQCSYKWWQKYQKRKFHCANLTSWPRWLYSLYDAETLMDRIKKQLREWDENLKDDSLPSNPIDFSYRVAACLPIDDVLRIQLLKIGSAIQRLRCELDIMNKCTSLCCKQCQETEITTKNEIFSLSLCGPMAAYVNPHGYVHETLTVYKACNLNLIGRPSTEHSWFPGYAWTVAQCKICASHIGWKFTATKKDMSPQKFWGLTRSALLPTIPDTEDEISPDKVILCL
IKZF2, sequence (Q16531 whole entry partner): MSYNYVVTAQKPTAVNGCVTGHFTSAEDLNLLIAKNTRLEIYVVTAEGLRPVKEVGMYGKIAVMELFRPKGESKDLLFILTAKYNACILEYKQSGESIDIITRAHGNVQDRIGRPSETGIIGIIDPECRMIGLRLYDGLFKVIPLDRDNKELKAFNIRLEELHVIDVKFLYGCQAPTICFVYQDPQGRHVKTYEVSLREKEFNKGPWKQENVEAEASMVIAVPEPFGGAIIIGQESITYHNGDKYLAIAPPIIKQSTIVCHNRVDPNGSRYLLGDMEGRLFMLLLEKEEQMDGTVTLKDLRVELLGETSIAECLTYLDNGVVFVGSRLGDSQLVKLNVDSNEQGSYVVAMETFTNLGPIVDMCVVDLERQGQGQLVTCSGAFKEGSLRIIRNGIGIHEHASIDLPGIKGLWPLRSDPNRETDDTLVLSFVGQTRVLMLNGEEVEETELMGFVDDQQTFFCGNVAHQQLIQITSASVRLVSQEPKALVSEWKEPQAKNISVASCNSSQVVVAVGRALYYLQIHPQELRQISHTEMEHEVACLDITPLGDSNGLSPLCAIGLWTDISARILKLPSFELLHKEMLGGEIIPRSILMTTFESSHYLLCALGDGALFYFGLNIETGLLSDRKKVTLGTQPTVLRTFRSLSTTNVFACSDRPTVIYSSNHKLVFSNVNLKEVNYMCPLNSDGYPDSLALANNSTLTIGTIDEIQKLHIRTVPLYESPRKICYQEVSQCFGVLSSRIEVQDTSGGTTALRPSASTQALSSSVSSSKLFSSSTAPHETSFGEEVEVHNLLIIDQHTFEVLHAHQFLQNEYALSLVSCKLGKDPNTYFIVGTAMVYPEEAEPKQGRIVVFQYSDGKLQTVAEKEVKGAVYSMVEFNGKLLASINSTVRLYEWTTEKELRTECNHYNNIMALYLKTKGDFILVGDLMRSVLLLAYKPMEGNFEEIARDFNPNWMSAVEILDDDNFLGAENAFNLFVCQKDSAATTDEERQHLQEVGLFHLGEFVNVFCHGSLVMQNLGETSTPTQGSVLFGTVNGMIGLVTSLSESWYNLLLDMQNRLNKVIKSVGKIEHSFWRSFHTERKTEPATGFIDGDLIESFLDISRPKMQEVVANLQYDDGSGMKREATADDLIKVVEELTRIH

SMILES | DC50 [nM] | Dmax [%]
O=C1CCC(N2Cc3c(ccc4c3OCC43CCN(Cc4cccc(-c5cnn(C6CCOCC6)c5)c4)CC3)C2=O)C(=O)N1 (centres unmarked) [Compound A147, 3-(6-oxo-1′-(3-(1-(tetrahydro-2H-pyran-4-yl)-1H-pyrazol-4-yl)benzyl)-6,8-dihydro-2H,7H-spiro[furo[2,3-e]isoindole-3,4′-piperidin]-7-yl)piperidine-2,6-dione] | < 50 | 60 to 80
Cn1cc(-c2ccc(CN3CCC4(CC3)COc3c4ccc4c3CN(C3CCC(=O)NC3=O)C4=O)cc2)cn1 (centres unmarked) [Compound A148, 3-(1′-(4-(1-methyl-1H-pyrazol-4-yl)benzyl)-6-oxo-6,8-dihydro-2H,7H-spiro[furo[2,3-e]isoindole-3,4′-piperidin]-7-yl)piperidine-2,6-dione] | < 50 | 60 to 80
O=C1CCC(N2Cc3c(ccc4c3OCC43CCN(Cc4ccccc4-n4ccnc4)CC3)C2=O)C(=O)N1 (centres unmarked) [Compound A149, 3-(1′-(2-(1H-imidazol-1-yl)benzyl)-6-oxo-6,8-dihydro-2H,7H-spiro[furo[2,3-e]isoindole-3,4′-piperidin]-7-yl)piperidine-2,6-dione] | > 500 | < 40
O=C1CCC(N2Cc3c(ccc4c3OCC43CCN(Cc4cccc(-c5ncon5)c4)CC3)C2=O)C(=O)N1 (centres unmarked) [Compound A150, 3-(1′-(3-(1,2,4-oxadiazol-3-yl)benzyl)-6-oxo-6,8-dihydro-2H,7H-spiro[furo[2,3-e]isoindole-3,4′-piperidin]-7-yl)piperidine-2,6-dione] | 50 to 200 | 60 to 80
Cc1nnc(-c2cccc(CN3CCC4(CC3)COc3c4ccc4c3CN(C3CCC(=O)NC3=O)C4=O)c2)o1 (centres unmarked) [Compound A151, 3-(1′-(3-(5-methyl-1,3,4-oxadiazol-2-yl)benzyl)-6-oxo-6,8-dihydro-2H,7H-spiro[furo[2,3-e]isoindole-3,4′-piperidin]-7-yl)piperidine-2,6-dione] | 200 to 500 | 40 to 60
O=C1CCC(N2Cc3c(ccc4c3OCC43CCN(Cc4cccc5c4NC(=O)C5)CC3)C2=O)C(=O)N1 (centres unmarked) [Compound A152, 3-(6-oxo-1′-((2-oxoindolin-7-yl)methyl)-6,8-dihydro-2H,7H-spiro[furo[2,3-e]isoindole-3,4′-piperidin]-7-yl)piperidine-2,6-dione] | 50 to 200 | 60 to 80
O=C1CCC(N2Cc3c(ccc4c3OCC43CCN(Cc4ccc5c(c4)NC(=O)CO5)CC3)C2=O)C(=O)N1 (centres unmarked) [Compound A153, 3-(6-oxo-1′-((3-oxo-3,4-dihydro-2H-benzo[b][1,4]oxazin-6-yl)methyl)-6,8-dihydro-2H,7H-spiro[furo[2,3-e]isoindole-3,4′-piperidin]-7-yl)piperidine-2,6-dione] | 50 to 200 | 60 to 80
O=C1CCC(N2Cc3c(ccc4c3OCC43CCN(Cc4ccc5ccn(Cc6cccnc6)c5c4)CC3)C2=O)C(=O)N1 (centres unmarked) [Compound A154, 3-(6-oxo-1′-((1-(pyridin-3-ylmethyl)-1H-indol-6-yl)methyl)-6,8-dihydro-2H,7H-spiro[furo[2,3-e]isoindole-3,4′-piperidin]-7-yl)piperidine-2,6-dione] | 200 to 500 | 60 to 80
O=C1CCC(N2Cc3c(ccc4c3OCC43CCN(Cc4ccccc4Cn4cccn4)CC3)C2=O)C(=O)N1 (centres unmarked) [Compound A155, 3-(1′-(2-((1H-pyrazol-1-yl)methyl)benzyl)-6-oxo-6,8-dihydro-2H,7H-spiro[furo[2,3-e]isoindole-3,4′-piperidin]-7-yl)piperidine-2,6-dione] | > 500 | 40 to 60
O=C1CCC(N2Cc3c(ccc4c3OCC43CCN(Cc4ccccc4-n4cccn4)CC3)C2=O)C(=O)N1 (centres unmarked) [Compound A156, 3-(1′-(2-(1H-pyrazol-1-yl)benzyl)-6-oxo-6,8-dihydro-2H,7H-spiro[furo[2,3-e]isoindole-3,4′-piperidin]-7-yl)piperidine-2,6-dione] | > 500 | < 40
O=C1CCC(N2Cc3c(ccc4c3OCC43CCN(Cc4ccccc4OCc4ccccn4)CC3)C2=O)C(=O)N1 (centres unmarked) [Compound A157, 3-(6-oxo-1′-(2-(pyridin-2-ylmethoxy)benzyl)-6,8-dihydro-2H,7H-spiro[furo[2,3-e]isoindole-3,4′-piperidin]-7-yl)piperidine-2,6-dione] | < 50 | 60 to 80
O=C1CCC(N2Cc3c(ccc4c3OCC43CCN(Cc4ncsc4-c4ccccc4)CC3)C2=O)C(=O)N1 (centres unmarked) [Compound A158, 3-(6-oxo-1′-((5-phenylthiazol-4-yl)methyl)-6,8-dihydro-2H,7H-spiro[furo[2,3-e]isoindole-3,4′-piperidin]-7-yl)piperidine-2,6-dione] | > 500 | < 40
CS(=O)(=O)Nc1cccc(CN2CCC3(CC2)COc2c3ccc3c2CN(C2CCC(=O)NC2=O)C3=O)c1 (centres unmarked) [Compound A159, N-(3-((7-(2,6-dioxopiperidin-3-yl)-6-oxo-7,8-dihydro-2H,6H-spiro[furo[2,3-e]isoindole-3,4′-piperidin]-1′-yl)methyl)phenyl) methanesulfonamide] | > 500 | 40 to 60
O=C1CCC(N2Cc3c(ccc4c3OCC43CCN(Cc4ccc(-c5cn[nH]c5)cc4)CC3)C2=O)C(=O)N1 (centres unmarked) [Compound A162, 3-(1′-(4-(1H-pyrazol-4-yl)benzyl)-6-oxo-6,8-dihydro-2H,7H-spiro[furo[2,3-e]isoindole-3,4′-piperidin]-7-yl)piperidine-2,6-dione] | 50 to 200 | 60 to 80
O=C1CCC(N2Cc3c(ccc4c3OCC43CCN(Cc4cnc5[nH]ccc5c4)CC3)C2=O)C(=O)N1 (centres unmarked) [Compound A163, 3-(1′-((1H-pyrrolo[2,3-b]pyridin-5-yl)methyl)-6-oxo-6,8-dihydro-2H,7H-spiro[furo[2,3-e]isoindole-3,4′-piperidin]-7-yl)piperidine-2,6-dione] | < 50 | 60 to 80
O=C1CCC(N2Cc3c(ccc4c3OCC43CCN(Cc4ccc5oc(=O)[nH]c5c4)CC3)C2=O)C(=O)N1 (centres unmarked) [Compound A165, 3-(6-oxo-1′-((2-oxo-2,3-dihydrobenzo[d]oxazol-5-yl)methyl)-6,8-dihydro-2H,7H-spiro[furo[2,3-e]isoindole-3,4′-piperidin]-7-yl)piperidine-2,6-dione] | 50 to 200 | 60 to 80
CN(C(=O)c1cccc(CN2CCC3(CC2)COc2c3ccc3c2CN(C2CCC(=O)NC2=O)C3=O)c1)c1cccc(F)c1 (centres unmarked) [Compound A166, 3-((7-(2,6-dioxopiperidin-3-yl)-6-oxo-7,8-dihydro-2H,6H-spiro[furo[2,3-e]isoindole-3,4′-piperidin]-1′-yl)methyl)-N-(3-fluorophenyl)-N-methylbenzamide] | 50 to 200 | 40 to 60
Cn1ccc(COc2cccc(CN3CCC4(CC3)COc3c4ccc4c3CN(C3CCC(=O)NC3=O)C4=O)c2)n1 (centres unmarked) [Compound A167, 3-(1′-(3-((1-methyl-1H-pyrazol-3-yl)methoxy)benzyl)-6-oxo-6,8-dihydro-2H,7H-spiro[furo[2,3-e]isoindole-3,4′-piperidin]-7-yl)piperidine-2,6-dione] | 50 to 200 | 40 to 60
Cn1cc2ccc(CN3CCC4(CC3)COc3c4ccc4c3CN([C@H]3CCC(=O)NC3=O)C4=O)cc2n1 [Compound A169, (S)-3-(1′-((2-methyl-2H-indazol-6-yl)methyl)-6-oxo-6,8-dihydro-2H,7H-spiro[furo[2,3-e]isoindole-3,4′-piperidin]-7-yl)piperidine-2,6-dione] | < 50 | 60 to 80

Source: patent US20250215012A1, “IKZF2 DEGRADERS AND USES THEREOF” (REGENTS OF THE UNIVERSITY OF MICHIGAN, priority 2022, published 2025)
